The results in this text go back to US11072638B2, “Immunostimulating peptides” (AIMVION A/S, priority 2016, dated 2021).

Bridge positions count the residues as written; N and C are the ends. Ends that are not written are not given here. I, II: the chains in the order shown.

One experiment relates to THP-1 cells. In words: IL-6 levels in LPS-stimulated THP-1 cells, 6 h (Example 1). The note with it: for % IL-6 secretion level compared to LPS-stimulated control: THP-1, 1 μg/μl LPS for 6 h, + above, − below LPS-only control (100%); for Release of cytokines, including pro-inflammatory cytokines such as IL-6, TNF-alpha, and IL-8: pre-treatment of cells with peptide. In kind it is cell-based, human. As to the method:
The modulatory function of peptides SG #4, SG #8, SG #13, and SG #14 on the expression levels of IL-6 in the human acute monocytic leukaemia cell line THP-1 was examined. THP-1 cells were maintained in RPMI 1640 supplemented with 10% FBS, 100 U/ml penicillin, 100 μg/ml streptomycin and 2 mM L-glutamine at 37° C. in a 5% CO2 incubator. THP-1 cells are known to induce IL-6, TNFα, IL-10 and IL-8 mRNA and protein in response to lipopolysaccharide (LPS) treatment. THP-1 cells were left untreated or incubated with 0 uM, 7.5 μM, 15 μM, 30 μM, 60 μM or 100 μm of each of the peptides, and stimulated with […] LPS for 6 h, based on previous analyses to find the optimal dose and incubation times.
(−) inhibition indicates percentage (%) of inhibition as compared to only LPS treated samples (arbitrarily set at 100%).

In the next experiment the test system is female BALB/c mice. In words: Anti-ovalbumin IgG1 ELISA after in vivo immunization of mice (Example 3). The note with it: s.c. day 1 and day 14, 5 μg SG#4 + 50/25 μg ovalbumin per animal, serum at day 21. The text has this: Chicken ovalbumin has been used to trigger T cell activation in immunology studies. Ovalbumin immunized mice produce anti-OVA antibodies predominantly of the IgG1 and IgE isotypes that mediate tissue-specific effector functions in multiple mouse models. Thus, it is often desirable to measure anti-OVA antibody levels in the plasma or serum to determine the effectiveness of the immunization/induction of a TH2-mediated immune response. Here, we tested the effectiveness of the SG #4 peptide in inducing of a TH2-mediated immune response in female BALB/c mice. The study agents contained Ovalbumin alone, peptide construct SG #4 alone or ovalbumin in combination with SG #4. […]
An ELISA assay was carried out according to the manufacturer's protocol, as follows. […] This Goat Anti-mouse IgG1 was labeled with HRP, allowing quantification of the […]. Addition of the HRP Substrate 3,3′,5,5′-tetramethylbenzidine (TMB), following by Stop Solution produces a yellow colored product which was measured spectrophotometrically. […] 1 mL of the top standard concentration (250 pg/mL anti-ovalbumin IgG1 quantification) was prepared in 1× Assay Diluent A (1×AD) from the anti-ovalbumin IgG1 stock solution. […] Using computer reduction software, absorbance (linear y-axis) for standard versus concentration (linear x-axis) is plotted and data is fitted with a quadratic equation. […]
(ELISA stands for enzyme-linked immunosorbent assay.)

Turning to “LQNRRGLGLSILLNC (disulfide I:15-II:15 (inferred)) [SG#4]”, the “% IL-6 secretion level compared to LPS-stimulated control” value (“% IL-6 secretion level” for short) with THP-1 cells (7.5 μM peptide) is “+12.99%”; in the experiment on THP-1 cells (15 μM peptide), “+20.76%”; in the experiment on THP-1 cells (30 μM peptide), “+38.19%”; in the experiment with THP-1 cells (60 μM peptide), “+36.39%”; with THP-1 cells (100 μM peptide), “+13.27%”. Further, the “Release of cytokines, including pro-inflammatory cytokines such as IL-6, TNF-alpha, and IL-8” value (“Release of cytokines” for short) with THP-1 cells is given as “promotes the release of cytokines”. Also, the “Induction of immune response (anti-ovalbumin IgG1) versus ovalbumin alone” value with female BALB/c mice is on record as “significantly higher induction of immune response”.

In the case of “LQNKRGLGLSILLNEECGPGPGP (disulfide I:17-II:17 (inferred)) [SG#8]”, the “% IL-6 secretion level” value was “+1.472%” in the experiment on THP-1 cells (7.5 μM peptide); “+14.54%” in the experiment on THP-1 cells (15 μM peptide); “+6.835%” with THP-1 cells (30 μM peptide); “+7.655%” in the experiment with THP-1 cells (60 μM peptide); “+20.86%” in the experiment with THP-1 cells (100 μM peptide). The “Release of cytokines” value in the experiment with THP-1 cells was “promotes the release of cytokines”.

As for “LQNRRGLGLSILLNEELQNRRGL (Mutated sequence) [SG#14]”, the “% IL-6 secretion level” value in the experiment on THP-1 cells (7.5 μM peptide) is listed as −2.981%; with THP-1 cells (15 μM peptide), −0.4476%; in the experiment with THP-1 cells (30 μM peptide), “+0.7403%”; with THP-1 cells (60 μM peptide), “+28.52%”; with THP-1 cells (100 μM peptide) it was “+15.21%”. Further, the “Release of cytokines” value with THP-1 cells is recorded as “promotes the release of cytokines”.

For the sequence “LQNRRGLGLSILLNEE (Mutated sequence) [SG#13]”, the “% IL-6 secretion level” value is −5.765% in the experiment on THP-1 cells (7.5 μM peptide); “+6.907%” in the experiment with THP-1 cells (15 μM peptide); −5.286% with THP-1 cells (30 μM peptide); “+8.616%” with THP-1 cells (60 μM peptide); “+36.98%” with THP-1 cells (100 μM peptide). Moreover, the “Release of cytokines” value in the experiment on THP-1 cells is on record as “promotes the release of cytokines”.
